In patent publication US12447163B2, “Liposomal formulations of Bcl inhibitors” (Jazz Pharmaceuticals Therapeutics, Inc., priority 2021, dated 2025):

Test system: platelet count
Assay: Platelet count (thrombocytopenia / platelet protection) after administration of liposomal formulations or free drug
Format: in vivo, Female B6D2F1/J mice
Settings: liposomal formulations at various doses or free drug, FIG. 7F
Method: Female B6D2F1/J mice were purchased from Jackson Laboratory and acclimated 7 days prior to study start. Mice were caged in autoclaved Allentown ventilated caging at a capacity of 3 animals/cage during the course of the experiment. Cages were changed bi-weekly. Environmental enrichment that was supplied for cages were Nestlets from Ancare, transparent tinted polycarbonate Mouse Igloos from Bio-Serv on Envigo 7097¼″ corn cob bedding. All enrichment was added to the cage prior to the cages being autoclaved. Mice were fed Envigo Teklad Global Rodent Diet 2018. The rodent food was kept in the hoppers of the wire lids and was changed bi-weekly. Reverse osmosis water was supplied through Avidity Science automatic watering valves at a flow rate of 25-50 ml/min. Environmental control of the lights and monitoring of temperature, humidity and airflow was done by WatchDog. Light cycles in the animal holding rooms was set for 12 hours on and 12 hours off. Temperature, humidity and airflow were maintained and controlled by BCCRC facilities.
Mice were injected with the required volume to administer the prescribed dose (10 mg/kg) to the animals based on individual mouse weights using a 28 G needle. The injection volume was 200 μL/20 g mouse. The mice were briefly (less than 30 sec.) restrained during i.v. injections. […]

## CN(C)CC[C@H](CSc1ccccc1)Nc1ccc(S(=O)(=O)NC(=O)c2ccc(N3CCN(Cc4ccccc4-c4ccc(Cl)cc4)CC3)cc2)cc1[N+](=O)[O-] [Compound 7]
  tolerability (platelet count): well tolerated at the tested doses
